Measurements published in patent US8802597B2, “Herbicidal pyrimidines” (E I du Pont de Nemours and Company, priority 2003, dated 2014).
Read-outs that look alike come from different tables or passages of the source.

How the values were obtained:
Assay type in all cases: in vivo
[1] = tested on: wild oat (Avena fatua); test: Test B postemergence; conditions: Avena fatua, post-emergence
Procedure, shortened: (§1)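 Formulation: non-phytotoxic solvent blend with surfactant. Timing: preemergence on seeds, postemergence at 1- to 4-leaf (2–18 cm). Assessment: visual, 0–100 against controls, after 13–15 days' greenhouse growth.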

[2] = tested on: blackgrass (Alopecurus myosuroides); test: Test B postemergence; conditions: Alopecurus myosuroides, post-emergence
Procedure, shortened: as §1

[3] = tested on: duck salad (Heteranthera limosa); test: Test B flooded paddy test; conditions: Heteranthera limosa, Flood, 1000 g ai/ha; scale 0 to 100; read-out: Plant response rating, Ducksalad
Procedure, shortened: (§2)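 Plants were grown to the 2-leaf stage before treatment, then kept in a greenhouse for 13 to 15 days. Injury was rated visually against untreated controls on a 0 to 100 scale, where 0 is no effect and 100 is complete control.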

[4] = tested on: barnyardgrass (Echinochloa crus-galli); test: Test B flooded paddy test; conditions: Echinochloa crus-galli, Flood, 1000 g ai/ha; scale 0 (no effect) to 100 (complete control); read-out: Plant response rating, Barnyardgrass
Procedure, shortened: as §2

[5] = tested on: rice (Oryza sativa); test: Test B flooded paddy test; conditions: Oryza sativa, Flood, 1000 g ai/ha; scale 0 to 100; read-out: Plant response rating, Rice
Procedure, shortened: as §2

[6] = tested on: umbrella sedge (Cyperus difformis); test: Test B flooded paddy test; conditions: Cyperus difformis, Flood, 1000 g ai/ha; scale 0 to 100; read-out: Plant response rating, Sedge, Umbrella
Procedure, shortened: as §2

[7] = tested on: pigweed (Amaranthus retroflexus); test: Test B pre/postemergence; conditions: Amaranthus retroflexus; for pest or weed control at 125 g/ha: 125 g ai/ha; for pest or weed control at 500 g/ha: 500 g ai/ha
Procedure, shortened: as §1

[8] = tested on: corn (Zea mays); test: Test B pre/postemergence; conditions: Zea mays
Procedure, shortened: as §1

[9] = tested on: barnyardgrass (Echinochloa crus-galli); test: Test B pre/postemergence; conditions: Echinochloa crus-galli; for pest or weed control at 125 g/ha: 125 g ai/ha; for pest or weed control at 500 g/ha: 500 g ai/ha
Procedure, shortened: as §1

[10] = tested on: wheat (Triticum aestivum); test: Test B pre/postemergence; conditions: Triticum aestivum; for plant injury at 125 g/ha: 125 g ai/ha; for plant injury at 500 g/ha: 500 g ai/ha
Procedure, shortened: as §1

[11] = tested on: morningglory (Ipomoea coccinea); test: Test B pre/postemergence; conditions: Ipomoea; for pest or weed control at 125 g/ha: 125 g ai/ha; for pest or weed control at 500 g/ha: 500 g ai/ha
Procedure, shortened: as §1

[12] = tested on: lambsquarters (Chenopodium album); test: Test B pre/postemergence; conditions: Chenopodium album; for pest or weed control at 125 g/ha: 125 g ai/ha; for pest or weed control at 500 g/ha: 500 g ai/ha
Procedure, shortened: as §1

[13] = tested on: crabgrass (Digitaria sanguinalis); test: Test B pre/postemergence; conditions: Digitaria sanguinalis; for pest or weed control at 125 g/ha: 125 g ai/ha; for pest or weed control at 500 g/ha: 500 g ai/ha
Procedure, shortened: as §1

[14] = tested on: Surinam grass (Brachiaria decumbens); test: Test B pre/postemergence; conditions: Urochloa decumbens; for pest or weed control at 125 g/ha: 125 g ai/ha; for pest or weed control at 500 g/ha: 500 g ai/ha
Procedure, shortened: as §1

[15] = tested on: giant foxtail (Setaria faberii); test: Test B pre/postemergence; conditions: Setaria faberi; for pest or weed control at 125 g/ha: 125 g ai/ha; for pest or weed control at 500 g/ha: 500 g ai/ha
Procedure, shortened: as §1

[16] = tested on: cocklebur (Xanthium strumarium); test: Test B pre/postemergence; conditions: Xanthium strumarium; for pest or weed control at 125 g/ha: 125 g ai/ha; for pest or weed control at 500 g/ha: 500 g ai/ha
Procedure, shortened: as §1

[17] = tested on: velvetleaf (Abutilon theophrasti); test: Test B pre/postemergence; conditions: Abutilon theophrasti; for pest or weed control at 125 g/ha: 125 g ai/ha; for pest or weed control at 500 g/ha: 500 g ai/ha
Procedure, shortened: as §1

CCOC(=O)c1nc(-c2ccccc2)nc(N)c1Br [Compound 18]
pest or weed control at 125 g/ha ([1]; 125 g ai/ha, scale 0 to 100 (0 no effect, 100 complete control), read-out: Oat, Wild plant response rating): 0% | pest or weed control at 500 g/ha ([1]; 500 g ai/ha, scale 0 to 100, read-out: Plant response rating, Oat, Wild): 0% | pest or weed control at 125 g/ha ([2]; 125 g ai/ha, scale 0 to 100 (0 no effect, 100 complete control), read-out: Blackgrass plant response rating): 0% | pest or weed control at 500 g/ha ([2]; 500 g ai/ha, scale 0 to 100, read-out: Plant response rating, Blackgrass): 0% | pest or weed control at 1000 g/ha [3]: 80% | pest or weed control at 1000 g/ha [4]: 0% | plant injury at 1000 g/ha [5]: 0% | pest or weed control at 1000 g/ha [6]: 0% | pest or weed control at 125 g/ha ([7]; post-emergence, Postemergence, scale 0 to 100 (0 no effect, 100 complete control), read-out: Pigweed plant response rating): 20% | pest or weed control at 500 g/ha ([7]; post-emergence, Postemergence, scale 0 to 100, read-out: Plant response rating, Pigweed): 70% | pest or weed control at 125 g/ha ([7]; pre-emergence, Preemergence, scale 0 to 100 (0 no effect, 100 complete control), read-out: Plant response rating, Pigweed): 0% | pest or weed control at 500 g/ha ([7]; pre-emergence, Preemergence, scale 0 to 100 (0 no effect, 100 complete control), read-out: Pigweed plant response rating): 70% | plant injury at 125 g/ha ([8]; post-emergence, Postemergence, 125 g ai/ha, scale 0 to 100 (0 no effect, 100 complete control), read-out: Corn plant response rating): 0% | Corn plant response rating (crop injury, 0 = no effect, 100 = complete kill) at 500 g/ha ([8]; post-emergence, Postemergence, 500 g ai/ha, scale 0 to 100): 0% | Corn plant response rating (crop injury, 0 = no effect, 100 = complete kill) at 125 g/ha ([8]; pre-emergence, Preemergence, 125 g ai/ha, scale 0 to 100 (0 no effect, 100 complete control)): 0% | plant injury at 500 g/ha ([8]; pre-emergence, Preemergence, 500 g ai/ha, scale 0 to 100 (0 no effect, 100 complete control), read-out: Corn plant response rating): 0% | pest or weed control at 125 g/ha ([9]; post-emergence, Postemergence, scale 0 to 100 (0 no effect, 100 complete control), read-out: Barnyardgrass plant response rating): 0% | pest or weed control at 500 g/ha ([9]; post-emergence, Postemergence, scale 0 to 100, read-out: Plant response rating, Barnyardgrass): 0% | pest or weed control at 125 g/ha ([9]; pre-emergence, Preemergence, scale 0 to 100 (0 no effect, 100 complete control), read-out: Plant response rating, Barnyardgrass): 0% | pest or weed control at 500 g/ha ([9]; pre-emergence, Preemergence, scale 0 to 100 (0 no effect, 100 complete control), read-out: Barnyardgrass plant response rating): 0% | plant injury at 125 g/ha ([10]; post-emergence, Postemergence, scale 0 to 100 (0 no effect, 100 complete control), read-out: Wheat plant response rating): 0% | plant injury at 500 g/ha ([10]; post-emergence, Postemergence, scale 0 to 100, read-out: Plant response rating, Wheat): 0% | plant injury at 125 g/ha ([10]; pre-emergence, Preemergence, scale 0 to 100 (0 no effect, 100 complete control), read-out: Plant response rating, Wheat): 0% | plant injury at 500 g/ha ([10]; pre-emergence, Preemergence, scale 0 to 100 (0 no effect, 100 complete control), read-out: Wheat plant response rating): 0% | pest or weed control at 125 g/ha ([11]; post-emergence, Postemergence, scale 0 to 100 (0 no effect, 100 complete control), read-out: Morningglory plant response rating): 20% | pest or weed control at 500 g/ha ([11]; post-emergence, Postemergence, scale 0 to 100, read-out: Plant response rating, Morningglory): 70% | pest or weed control at 125 g/ha ([11]; pre-emergence, Preemergence, scale 0 to 100 (0 no effect, 100 complete control), read-out: Plant response rating, Morningglory): 0% | pest or weed control at 500 g/ha ([11]; pre-emergence, Preemergence, scale 0 to 100 (0 no effect, 100 complete control), read-out: Morningglory plant response rating): 0% | pest or weed control at 125 g/ha ([12]; post-emergence, Postemergence, scale 0 to 100 (0 no effect, 100 complete control), read-out: Lambsquarters plant response rating): 70% | pest or weed control at 500 g/ha ([12]; post-emergence, Postemergence, scale 0 to 100, read-out: Plant response rating, Lambsquarters): 90% | pest or weed control at 125 g/ha ([12]; pre-emergence, Preemergence, scale 0 to 100 (0 no effect, 100 complete control), read-out: Plant response rating, Lambsquarters): 10% | pest or weed control at 500 g/ha ([12]; pre-emergence, Preemergence, scale 0 to 100 (0 no effect, 100 complete control), read-out: Lambsquarters plant response rating): 60% | pest or weed control at 125 g/ha ([13]; post-emergence, Postemergence, scale 0 to 100 (0 no effect, 100 complete control), read-out: Crabgrass plant response rating): 0% | pest or weed control at 500 g/ha ([13]; post-emergence, Postemergence, scale 0 to 100, read-out: Plant response rating, Crabgrass): 0% | pest or weed control at 125 g/ha ([13]; pre-emergence, Preemergence, scale 0 to 100 (0 no effect, 100 complete control), read-out: Plant response rating, Crabgrass): 0% | pest or weed control at 500 g/ha ([13]; pre-emergence, Preemergence, scale 0 to 100 (0 no effect, 100 complete control), read-out: Crabgrass plant response rating): 0% | pest or weed control at 125 g/ha ([14]; post-emergence, Postemergence, scale 0 to 100 (0 no effect, 100 complete control), read-out: Surinam Grass plant response rating): 0% | pest or weed control at 500 g/ha ([14]; post-emergence, Postemergence, scale 0 to 100, read-out: Plant response rating, Surinam Grass): 0% | pest or weed control at 125 g/ha ([14]; pre-emergence, Preemergence, scale 0 to 100 (0 no effect, 100 complete control), read-out: Plant response rating, Surinam Grass): 0% | pest or weed control at 500 g/ha ([14]; pre-emergence, Preemergence, scale 0 to 100 (0 no effect, 100 complete control), read-out: Surinam Grass plant response rating): 0% | pest or weed control at 125 g/ha ([15]; post-emergence, Postemergence, scale 0 to 100 (0 no effect, 100 complete control), read-out: Foxtail, Giant plant response rating): 0% | pest or weed control at 500 g/ha ([15]; post-emergence, Postemergence, scale 0 to 100, read-out: Plant response rating, Foxtail, Giant): 0% | pest or weed control at 125 g/ha ([15]; pre-emergence, Preemergence, scale 0 to 100 (0 no effect, 100 complete control), read-out: Plant response rating, Foxtail, Giant): 0% | pest or weed control at 500 g/ha ([15]; pre-emergence, Preemergence, scale 0 to 100 (0 no effect, 100 complete control), read-out: Foxtail, Giant plant response rating): 0% | pest or weed control at 125 g/ha ([16]; post-emergence, Postemergence, scale 0 to 100 (0 no effect, 100 complete control), read-out: Cocklebur plant response rating): 70% | pest or weed control at 500 g/ha ([16]; post-emergence, Postemergence, scale 0 to 100, read-out: Plant response rating, Cocklebur): 70% | pest or weed control at 125 g/ha ([16]; pre-emergence, Preemergence, scale 0 to 100 (0 no effect, 100 complete control), read-out: Plant response rating, Cocklebur): 10% | pest or weed control at 500 g/ha ([16]; pre-emergence, Preemergence, scale 0 to 100 (0 no effect, 100 complete control), read-out: Cocklebur plant response rating): 40% | pest or weed control at 125 g/ha ([17]; post-emergence, Postemergence, scale 0 to 100 (0 no effect, 100 complete control), read-out: Velvetleaf plant response rating): 20% | pest or weed control at 500 g/ha ([17]; post-emergence, Postemergence, scale 0 to 100, read-out: Plant response rating, Velvetleaf): 50% | pest or weed control at 125 g/ha ([17]; pre-emergence, Preemergence, scale 0 to 100 (0 no effect, 100 complete control), read-out: Plant response rating, Velvetleaf): 0% | pest or weed control at 500 g/ha ([17]; pre-emergence, Preemergence, scale 0 to 100 (0 no effect, 100 complete control), read-out: Velvetleaf plant response rating): 40%
